Experimental data: patent US10258697B2, “Efficient delivery of therapeutic molecules in vitro and in vivo” (Massachusetts Eye and Ear Infirmary, priority 2014, dated 2019)
No end group written: not given here.

Legend:
BSR.LNL.tdTomato cells [1] = test: Cre delivery assay with expressed fusion proteins (flow cytometry); format: cell-based, hamster; conditions: 250 nM, compared with unmutated aurein 1.2-+36 GFP-Cre
Protocol: (§1) FIGS. 15A, 15B are graphs showing the efficacy and toxicity of recombinant expression fusions of aurein 1.2 (“E”) and citropin 1.3 (“U”). […] The percentage of tdTomato positive cells was determined by flow cytometry. Protein fusions were delivered at 125 nM, 250 nM, 500 nM, and 1 μM. […] Protein fusions were delivered at 125 nM, 250 nM, 500 nM, and 1 μM. […] Cells were treated with 250 nM protein for 4 h in serum-free media. Cells were washed and supplanted with full DMEM and incubated for 48 h. Error bars represent the standard deviation of three independent biological replicates.
(§2) Uptake and delivery assays for Cre fusion proteins were performed as previously described (Cronican, J. J.; et al. ACS Chemical Biology 2010, 5, 747). Briefly, proteins were diluted in serum-free DMEM and incubated on the cells in 48-well plates for 4 h at 37° C. Following incubation, the cells were washed three times with PBS+20 U/mL heparin. The cells were incubated a further 48 h in serum-containing media prior to trypsinization and analysis by flow cytometry. All flow cytometry were carried out on a BD Fortessa flow cytometer (Becton-Dickinson) using 530/30 nm and 610/20 nm filter sets. […] Toxicity for alanine scan mutational analysis was determined with LIVE/DEAD fixable far-red dead cell stain (Life Technologies) with 635 nm laser and 670/30 nm filter.

BSR.LNL.tdTomato cells [2] = test: Toxicity of aurein 1.2 variants fused to +36 GFP-Cre; format: cell-based, hamster; conditions: 250 nM
Excerpt: FIGS. 16A, 16B are graphs showing the activity and cytotoxicity of aurein 1.2 variants fused to +36 GFP-Cre (FIG. 16A). […] (FIG. 16B) Toxicity as determined by CELLTITERGLO (Promega) assay.

BSR.LNL.tdTomato cells [3] = test: Primary screen for cytosolic delivery of Cre recombinase (fluorescence image analysis); format: cell-based, hamster; conditions: for level of recombination of sortase-conjugated peptide-(+36 GFP)-Cre: 250 nM, primary screen
Protocol: Initial screen of 20 peptide-(+36 GFP)-Cre conjugated proteins. Cytosolic Cre delivery results in recombination and tdTomato expression. The percentage of tdTomato positive cells was determined by fluorescence image analysis. […] Cells were washed and supplanted with full DMEM and incubated for 48 h. Error bars represent the standard deviation of three independent biological replicates.
BSR.LNL.tdTomato cells were plated at 10,000 cells per well in black 384-well plates (Aurora Biotechnologies). […] Following incubation, the cells were washed three times with PBS+20 U/mL heparin. The cells were incubated a further 48 h in serum-containing media. Cells were fixed in 3% paraformaldehyde and stained with Hoescht 33342 nuclear dye. […] Images were exposed for 10 ms in the DAPI channel (Hoechst) and 500 ms in the dsRed channel (tdTomato). Image analysis was performed using the cell-scoring module of MetaXpress software (Molecular Devices). All nuclei were detected with a minimum width of 1 pixel, maximum width of 3 pixels, and an intensity of 200 gray levels above background. Positive cells were evaluated for uniform signal in the dsRed channel (minimum width of 5 pixels, maximum width of 30 pixels, intensity >200 gray levels above background, 10 μm minimum stained area). In total, nine images were captured and analyzed per well, and 16 wells were treated with the same fusion protein. The primary screen was completed in biological triplicate.
Because Cre recombinase must enter the cell, escape endosomes, enter the nucleus, and catalyze recombination to generate tdTomato fluorescence, this assay reflects the availability of active, non-endosomal recombinase enzyme that reaches the nucleus.
The reporter BSR.LNL.tdTomato cells were incubated with 250 nM of each peptide-(+36 GFP)-Cre protein in serum-free media.

[4] = system: cochlear hair cells of Rosa-tdTomato f/f (floxP-tdTomato) mice; test: Supercharged GFP-Cre delivery to hair cells of tdTomato reporter mouse cochlea in vivo; conditions: for hair cells tdT-labeled: near the injection site (base turn of cochlea)
Protocol: FIGS. 10A and 10B show the in vivo delivery of Cre recombinase to hair cells in the mouse inner ear. FIG. 10A: The scala media (cochlear duct) of P0 floxP-tdTomato mice (n=4) were injected with 0.3 μL of 23 μM (−30)GFP-Cre in 50% RNAiMAX or with RNAiMAX alone (control). After 5 days, tdTomato expression indicative of Cre-mediated recombination was visualized using immunohistology. Red=tdTomato; green=Myo7a; white=Sox2; blue=DAPI. Yellow brackets indicate the outer hair cell (OHC) region. […] Red=tdTomato; green=Esp, white=Sox2; blue=DAPI, Scale bars: 10 μm.
P1 floxP-tdTomato mice (The Jackson Laboratory) were used for (−30)GFP-Cre injection and P2 Atoh1-GFP mice (Dr. J Johnson, Southwestern Medical Center, University of Texas) were used for Cas9:sgRNA injection. Animals were used under protocols approved by the Massachusetts Eye & Ear Infirmary ALCUC committee. Mice were anesthetized by lowering their temperature on ice. Cochleostomies were performed by making an incision behind the ear to expose the cochlea. Glass micropipettes held by a micromanipulator were used to deliver the complex into the scala media, which allows access to inner ear hair cells. For delivery of (−30)GFP-Cre, 3 μL of 45 μM protein was mixed with 3 μL of either RNAiMAX or Lipofectamine 2000 and incubated at room temperature for 30 minutes prior to injection. Four mice were injected per treatment group. […]
5-10 days after injection, the mice were sacrificed and cochlea were harvested by standard protocols. […] To quantify the number of tdTomato positive cells after (−30)GFP-Cre or GFP negative cells after Cas9:sgRNA delivery, the total number of outer hair cells were counted in a region spanning 200 μm around the site of injection in the base turn of the cochlea. The efficiency of (−30)GFP-Cre-induced recombination or Cas9:sgRNA-induced genome modification was calculated as the percentage of outer hair cells that expressed tdTomato or that lost GFP expression. […]

[5] = system: inner ear cell types (IHC, OHC, SC) of Rosa-tdT mouse; test: (+36)-GFP-aurein-Cre injection into P3 Rosa-tdT mouse inner ear by cochleostomy; format: in vivo; conditions: 50 μM
Protocol: FIGS. 11A-11E show the high efficiency of protein delivery mediated by aurein in the inner ear in vivo. […] FIG. 11E: In Opti-MEM injected control mice no tdT labeling was detected in any inner ear cells. Scale bars: 10 μm.
It was next tested whether Aurein, an antimicrobial peptide, in combination with s-GFP, can serve as an effective carrier to deliver functional proteins into mouse inner ear cell types with high efficiency. (+36)-GFP-aurein-Cre was injected with different concentrations into P3 Rosa-tdT mouse inner ear by cochleostomy in vivo. The tissues were harvested 5 days later for immunolabeling to identify tdT^+ inner ear cell types. […] At 22.5 μM, 58% of OHC and 75% of IHC, as well as 8% of SC were tdT^+. At the highest 50 μM, 96% of OHC, 88% of IHC and 19% of SC were tdT^+. Some spiral ganglion neurons were also tdT at 22.5 and 50 μM (FIGS. 11A-11E and FIG. 12).

BSR.LNL.tdTomato cells [6] = test: ATP-dependent cell viability assay (CELLTITER-GLO); conditions: 1 μM, 48 h after treatment
Protocol: as §1
as §2, with “cytometry.” for “cytometry. All flow cytometry were carried out on a BD Fortessa flow cytometer (Becton-Dickinson) using 530/30 nm and 610/20 nm filter sets.”
Next, the toxicity of each fusion protein was evaluated at a range of concentrations (125 nM to 1 μM) using an ATP-dependent cell viability assay at 48 h after treatment.

[7] = system: cochlear inner hair cells, outer hair cells and supporting cells; format: in vivo
Protocol: 0.4 μL of 50 μM+36 GFP-Cre or aurein 1.2-+36 GFP-Cre were injected into the scala media. […] Inner hair cells (IHC), outer hair cells (OHC) and supporting cells in the sensory epithelium (SE) were imaged for the presence of tdTomato, which is only expressed following Cre-mediated recombination. Hair cells were labeled with antibodies against the hair-cell marker Myo7a.
P1-2 Gt(ROSA)26Sor^tm14(CAG-tdTomato)Hze mice were used for aurein 1.2-+36-GFP-Cre and +36-GFP-Cre injection. The Rosa26-tdTomato mice were from the Jackson Laboratory. Animals were used under protocols approved by the Massachusetts Eye & Ear Infirmary IACUC committee. Mice were anesthetized by hypothermia on ice. Cochleostomies were performed by making an incision behind the ear to expose the cochlea. Glass micropipettes held by a micromanipulator were used to deliver the complex into the scala media, which allows access to inner ear hair cells. The total delivery volume for every injection was 0.4 μL per cochlea and the release was controlled by a micromanipulator at the speed of 69 nL/min.
To quantify the number of tdTomato positive cells after aurein 1.2-+36-GFP-Cre and +36-GFP-Cre, we counted the total number of inner and outer hair cells in a region spanning 100 μm in the apex, middle, and base turn of the cochlea.
Both the hair cells (Myo7a+) and supporting cells (Myo7a−) were evaluated for td Tomato signal.

mouse retina = conditions: +36 GFP-Cre alone; cited from earlier work
[8] = system: glucocorticoid receptor (GR-mCherry) in HeLa cells; test: GR-mCherry translocation assay; format: cell-based; conditions: 1 μM for 30 min, HeLa cells expressing GR-mCherry
Protocol: One day prior to transfection 10,000 HeLa cells in 200 μL of DMEM (10% FBS, 1× Pen-Strep) were plated into single wells of a 96-well MATRICAL glass bottom microplate (MGB096-1-2-LG-L) and allowed to adhere overnight. The following day, cells were transfected with GRmCherry using LIPOFECTAMINE® 2000 technologies. Following transfection, cells were allowed to recover overnight in DMEM (+10% FBS). The following day, cells were treated with dexamethasone (Dex) or 1 μM Dex-protein conjugate in the presence or absence of inhibitor diluted into DMEM (without phenol red, +300 nM Hoescht33342). After 30 min, cells were washed twice with 200 μL of HEPES-Krebs-Ringer's (HKR) buffer (140 mM NaCl, 2 mM KCl, 1 mM CaCl2, 1 mM MgCl2, and 10 mM HEPES at pH 7.4), after which 100 μL of HKR buffer was overlaid onto the cells and images were acquired on a Zeiss Axiovert 200M epifluorescence microscope outfitted with Ziess AxiocammRM camera and an EXFO-Excite series 120 Hg arc lamp. The translocation ratio (the ratio of median […] intensity in the nuclear and surrounding regions) for individual cells was measured using CELLPROFILER® as described 36. […]
Although endosomal escape is widely considered to be the major bottleneck of cationic protein delivery (Sahay, G.; et al. Nature Biotechnology 2013, 31, 653), few assays quantify the ability of proteins to escape endosomes on a single-cell basis.

Substance: GLFDIIKKIAEAF [S12A, aurein 1.2 variant expressed as fusion with +36 GFP-Cre]
- recombination efficiency of aurein 1.2 variants fused to +36 GFP-Cre (BSR.LNL.tdTomato cells [1]): potentially improved overall recombination efficiency
- toxicity of aurein 1.2 variants (BSR.LNL.tdTomato cells [2]): increased toxicity

Substance: GLFDIIKKVASVIGGL (listed as Litoria citropa) [citropin 1.3]
- level of recombination of sortase-conjugated peptide-(+36 GFP)-Cre (BSR.LNL.tdTomato cells [3]): moderate level of recombination

Substance: GLFDIIKRIAESF [K8R, aurein 1.2 variant expressed as fusion with +36 GFP-Cre]
- recombination efficiency of aurein 1.2 variants fused to +36 GFP-Cre (BSR.LNL.tdTomato cells [1]): potentially improved overall recombination efficiency
- toxicity of aurein 1.2 variants (BSR.LNL.tdTomato cells [2]): increased toxicity

Substance: (−30)GFP-Cre: negatively supercharged GFP fused to Cre recombinase, SEQ ID NO: 4
- hair cells tdT-labeled [4]: ~30%
- stereocilia of tdTomato-positive outer hair cells ([4]; ten days after delivery, 23 μM in 50% RNAiMAX, P0 floxP-tdTomato mice): intact espin (Esp)-expressing stereocilia

Substance: +36 GFP-Cre: superpositively charged GFP fused to Cre recombinase, SEQ ID NO: 1
- hair cells tdT-labeled [4]: ~30%
- tdT labeling of cochlear cell types [5]: very few IHC and HC were labeled with tdT
- recombined cells with chloroquine (positive control) (BSR.LNL.tdTomato cells [3]; 250 nM protein incubated with 100 μM chloroquine): 48%
- cells expressing tdTomato (recombined cells) (BSR.LNL.tdTomato cells [3]; 250 nM protein, 4 h serum-free media, then 48 h): 4.5%
- cell viability (BSR.LNL.tdTomato cells [6]): 85%
- Cre-mediated recombination in inner hair cells (IHC) ([7]; apex, 50 μM): 4.4%
- recombination in mouse retina (mouse retina): modest levels of recombination

Substance: Arg8^Dex: canonical cell permeable peptide (SEQ ID NO: 102), dexamethasone-labeled positive control (RRRRRRRR; also: dexamethasone label)
- nuclear-to-cytoplasm translocation ratio (TR) [8]: 1.63

Substance: GLFDIIKKIAESF [aurein 1.2]
- level of recombination of sortase-conjugated peptide-(+36 GFP)-Cre (BSR.LNL.tdTomato cells [3]): highest level of recombination
- potency of Cre delivery into cochlear hair cells when fused with aurein 1.2 vs absence of the peptide ([7]; live mice): > 20 fold
